Data as given in patent US4413009A, “N-((Alkylamino)carbonyl)-N-(((alkylamino)carbonyl)oxy)acylamides with antineoplastic activity” (priority 1982, dated 1983).

Key:
[1] = test system: HeLa cells; test: HeLa cell colony cytotoxicity / growth inhibition test; format: cell-based, human; conditions: 8 days, 0-50 μg/ml
Experimental: HeLa cells were seeded in 24-well tissue culture plates at a concentration of 30 cells per well in 1 ml of growth medium (Eagle's minimum essential medium with 5 percent HIFCS). The plates were incubated at 36° C. for 24 hours after which the growth medium was removed. The cells were resuspended in 1 ml of fresh growth medium described above together with a measured quantity of (0-50 μg/ml) of one of the compounds of this invention. The 0 μg/ml concentration served as a control. The tissue culture plates were then incubated at 36° C. for 8 days at which time the medium was removed and the cells were fixed and stained with 0.1% crystal violet in 20% ethanol. The HeLa cell colonies were counted macroscopically, and comparisons of colony size in treated and control wells were made. Test compounds were considered cytotoxic at concentrations which reduced the number of HeLa cell colonies compared to control by 50% or more. Test compounds of the invention were considered to cause HeLa cell growth inhibition at concentrations which reduced the size of colonies by a measurable amount when compared to control.

[2] = test system: P388 leukemia; test: Antineoplastic activity against P388 lymphocytic leukemia in mice (IP), survival time and toxicity day survivors; format: in vivo, mice (CDF1); conditions: for Toxicity Day Survivors: survivors/started
Experimental: (A) Test mice (CDF1 mice) were injected intraperitoneally (IP) with ascitic fluid containing 10^6 cells of P388 lymphocytic leukemia. The test compound was administered in a sialine -Tween 80 carrier at the appropriate dosage, IP daily for 9 days; the initial treatment performed the first day after tumor inoculation. Control mice received no compound.

[3] = test system: MX-1 human breast xenograft; test: Activity against MX-1 human breast xenograft in subrenal capsule of athymic mice, tumor size change and toxicity day survivors; format: in vivo, human (xenograft in athymic Swiss Nu/Nu mice); conditions: survivors/started
Experimental: (B) A tumor fragment (MX-1 human breast xenograft) having a diameter of between 9 and 12 ocular micrometer units (OMU) (approximately 1×1×1 millimeter) was implanted and measured in situ in the subrenal capsule of athymic Swiss (Nu/Nu Swiss) mice. The appropriate dosage of the test compound in a saline carrier was administered by subcutaneous injection once daily for 10 days; the initial treatment was performed on the first day after tumor implant. No test compound was administered to the control mice. Test mice were sacrificed on the eleventh day and tumor size noted. The change in tumor diameter (from day 0 (implant day) to day 11 (sacrifice day)) as compared with the tumor size of the control was used as an evaluation of tumor growth or regression.

[4] = Experiment No. 1, 50.00 mg/kg per injection IP daily for 9 days
[5] = Experiment No. 2, 12.50 mg/kg per injection IP daily for 9 days
[6] = Experiment No. 2, 25.00 mg/kg per injection IP daily for 9 days
[7] = Experiment No. 2, 50.00 mg/kg per injection IP daily for 9 days

SMILES: CNC(=O)ON(C(C)=O)C(=O)NC [Example 1, N-((Methylamino)carbonyl)-N-(((methylamino)carbonyl)oxy)acetamide]
- Cell Growth Inhibition: concentration at which the size of the HeLa colonies were reduced by a measurable amount (as compared to control) [1]: 12.5 µg/mL
- median survival time of the test animals (in words) ([2]; 50 mg/kg per injection, one experiment): increased the median survival time
- median survival time of the test animals (in words) ([2]; 12.50, 25 and 50 mg/kg per injection, another experiment): increased the median survival time
- T/C % (median survival time, treated vs control) [2, 4]: 142%
- Toxicity Day Survivors [2, 4]: 06/06
- Toxicity Day Survivors ([2]; Experiment No. 1, 100.00 mg/kg per injection IP daily for 9 days): 01/06
- Toxicity Day Survivors ([2]; Experiment No. 1, 200.00 mg/kg per injection IP daily for 9 days): 00/06
- T/C % (median survival time, treated vs control) [2, 5]: 131%
- Toxicity Day Survivors [2, 5]: 06/06
- T/C % (median survival time, treated vs control) [2, 6]: 126%
- Toxicity Day Survivors [2, 6]: 06/06
- T/C % (median survival time, treated vs control) [2, 7]: 141%
- Toxicity Day Survivors [2, 7]: 06/06
- Toxicity Day Survivors ([2]; Experiment No. 2, 100.00 mg/kg per injection IP daily for 9 days): 03/06
- median survival time of the test mice afflicted with P388 leukemia (in words) ([2]; Table 3 data): increased the median survival time
- Toxicity Day Survivors ([3]; Experiment 1, 12.5 mg/kg s.c. daily for 10 days): 03/03
- Toxicity Day Survivors ([3]; Experiment 1, 25 mg/kg s.c. daily for 10 days): 03/03
- Toxicity Day Survivors ([3]; Experiment 1, 50 mg/kg s.c. daily for 10 days): 03/03
- Toxicity Day Survivors ([3]; Experiment 1, 100 mg/kg s.c. daily for 10 days): 01/03
- Toxicity Day Survivors ([3]; Experiment 2, 25 mg/kg s.c. daily for 10 days): 06/06
- Toxicity Day Survivors ([3]; Experiment 2, 50 mg/kg s.c. daily for 10 days): 06/06
- Toxicity Day Survivors ([3]; Experiment 2, 100 mg/kg s.c. daily for 10 days): 06/06
- Toxicity Day Survivors ([3]; Experiment 2, 200 mg/kg s.c. daily for 10 days): 05/06
- Toxicity Day Survivors ([3]; Experiment 3, 25 mg/kg s.c. daily for 10 days): 06/06
- Toxicity Day Survivors ([3]; Experiment 3, 50 mg/kg s.c. daily for 10 days): 06/06
- Toxicity Day Survivors ([3]; Experiment 3, 100 mg/kg s.c. daily for 10 days): 06/06
- Toxicity Day Survivors ([3]; Experiment 3, 200 mg/kg s.c. daily for 10 days): 00/06
- Toxicity Day Survivors ([3]; Experiment 4, 25 mg/kg s.c. daily for 10 days): 03/03
- Toxicity Day Survivors ([3]; Experiment 4, 50 mg/kg s.c. daily for 10 days): 02/02
- Toxicity Day Survivors ([3]; Experiment 4, 100 mg/kg s.c. daily for 10 days): 03/03
- Toxicity Day Survivors ([3]; Experiment 4, 200 mg/kg s.c. daily for 10 days): 01/03
